Assay results: the METLIN SMRT retention time set (Domingo-Almenara et al. 2019)

Assay: gradient 5% acetonitrile 3 min, to 50% in 2 min, to 85% in 15 min, held 3 min, 100 µL/min
Conditions: column: Zorbax Extend-C18 2.1 x 50 mm; eluents: water / acetonitrile, 0.1% formic acid
Outline: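 Retention times of pure standards were taken from adduct peaks that were selected by computer and manually inspected. Over 3 months, mixtures of ~100 molecules were run by HPLC–quadrupole time-of-flight mass spectrometry in positive and negative ionization mode. The Zorbax Extend-C18 column (2.1 × 50 mm, 1.8 μm) ran at 100 μL/min in water and acetonitrile, each containing 0.1% formic acid, with 40 μL dead volume and 900 μL dwell volume.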

SMILES	RP-LC retention time
O=C1CS(=O)C2(CCNCC2)N1Cc1cccc(F)c1 (stereo not drawn)	566 s
CCOC(=O)c1nc(NCc2ccc(Cl)cc2)c2ccccc2n1	868 s
CCCCN1C(=O)C(CC(=O)NC(C)C)Sc2ncccc21 (stereo not drawn)	742 s
Cc1nccn1Cc1noc(-c2ccccc2Cl)n1	615 s
c1ccc(N2CCN(Cc3nc(-c4ccc(N5CCOCC5)nc4)no3)CC2)cc1	772 s
Cc1ccc(NS(=O)(=O)c2ccc3c(c2)C(=O)N(C)c2ncccc2O3)cc1C	970 s
CCn1c(=O)c(N2CCN(C(=O)Nc3cc(C)ccc3C)CC2)nc2ccccc21	984 s
CCc1onc(C)c1C1CCCN1C(=O)Nc1ccccc1Cl (stereo not drawn)	907 s
CCn1ccc2c(cc(C(=O)Nc3ccc(OC)cc3OC)n2C)c1=O	692 s
CCC(=O)N1CCc2cc(CNC(=O)c3ccnn3C)ccc21	665 s
COc1ccc(S(=O)(=O)N2CCCC(C(=O)Nc3ccc4c(c3)OCO4)C2)cc1Cl (stereo not drawn)	941 s
COCCCNC(=O)c1cc2n(n1)CCCN(Cc1ccc(F)cc1)C2=O	697 s
COc1ccc(CNC(=O)CN2C(=O)C3CCCCN3c3ccc(S(=O)(=O)N(C)C)cc32)cc1 (stereo not drawn)	887 s
CCOC(=O)C1CCN(c2cc3c(cc2NC(=O)CC2CCCCC2)n(C)c(=O)c(=O)n3C)CC1	981 s
CCc1csc(-c2ccc(N3CCN(C(=O)c4ccc(C#N)cc4F)CC3)nc2)n1	929 s
O=S(=O)(Nc1ccc(F)cc1)c1cccc(-c2nc(-c3ccccc3)no2)c1	1120 s
Cc1nc2ccccn2c(=O)c1Cc1nnc(SCc2cc(=O)c3cccc(C)c3[nH]2)n1C	599 s
O=C(c1ccoc1)N1CCCC(OCc2nc(-c3ccncc3)no2)C1 (stereo not drawn)	668 s
CCOC(=O)c1c(C)[nH]c(C)c1S(=O)(=O)N1CCC(C(=O)NCc2cccc(C)c2)CC1	668 s
CCCN1CCN(c2ncc(C(=O)Nc3ccccc3)c(N)n2)CC1	610 s
CCOc1ccc(CC(=O)N2C[C@@H]3C[C@H](NC(=O)c4cccnc4)[C@H]2C3)cc1	645 s
CCOCCOC1CCN(S(=O)(=O)Cc2ccccc2)CC1	856 s

SMILES	RP-LC retention time
Cc1ccc(CNC(=O)c2nnc(-c3ccc(S(=O)(=O)N4CCCC4)cc3)o2)o1	852 s
CCOc1ccc(N2C(=O)C3N=NN(Cc4nc(-c5ccccc5Br)no4)C3C2=O)cc1 (stereo not drawn)	1010 s
CCCCOc1ccc(C(=O)Nc2nc(-c3ccc(OC)c(C)c3)cs2)cc1	1240 s
Cc1cc2nc(C(F)(F)F)c(=O)n(C(C)C(=O)NCc3ccco3)c2cc1C (stereo not drawn)	756 s
Cc1noc(-c2ccc(=O)n(Cc3cccc(C(F)(F)F)c3)c2)n1	806 s
CCN(CCCNC(=O)C1CCCN(c2ncnc3c2oc2ccccc23)C1)c1ccccc1 (stereo not drawn)	649 s
Cc1nnc(-c2cccnc2N2CCN(C(=O)c3ccsc3)CC2)o1	675 s
O=C(N[C@H]1C[C@@H]2C[C@H]1CN2C(=O)c1ccc(OC(F)(F)F)cc1)c1cccs1	842 s
Cc1sc(NC(=O)c2ccc(Br)cc2)nc1-c1ccc2c(c1)NC(=O)CO2	972 s
Cc1ccc(NC(=O)N2CCCC(C)(C(=O)NCc3ccc(F)cc3)C2)c(Cl)c1 (stereo not drawn)	1010 s
CCOC(=O)c1sc(NC(=O)c2ccccc2F)nc1-c1ccccc1	1100 s
CS(=O)(=O)N1CCCC1C(=O)Nc1nc(-c2cc(Cl)sc2Cl)cs1 (stereo not drawn)	993 s
Cc1cccc(-n2c(N)cc(=O)nc2SCC(=O)Nc2nc(-c3ccccc3)cs2)c1	738 s
Cc1ccc(C)c(CNC(=O)c2nc(C)oc2C)c1	867 s
Cc1ccc(NC(=O)Cc2csc3nc(-c4ccc(C)c(C)c4)cn23)c(C)c1	930 s
COc1cc([C@@H]2c3cc4c(cc3[C@H](O)[C@@H](CO)[C@@H]2C(=O)NCCCN(C)C2CCCCC2)OCO4)cc(OC)c1OC	573 s
Cc1nc(-c2cn(C(C)C)c3ncccc23)sc1C(=O)Nc1cccc(F)c1	1140 s
O=S(=O)(c1ccc2nc(N3CCN(c4ccccc4F)CC3)ccc2c1)N1CCOCC1	939 s
CCN1c2ccc(C)cc2C(=O)NC12CCN(C(=O)c1ccc(F)cc1)CC2	828 s
CC(C)Cc1csc(-c2csc(S(=O)(=O)Nc3cccc(Cl)c3)c2)n1	1230 s
COc1nn(C)cc1C(=O)N1CCC(C(=O)NCc2cccs2)CC1	613 s
Cc1cnc(CC2CCN(C(=O)C(C)C)C2)n1C(C)C (stereo not drawn)	578 s

SMILES	RP-LC retention time
Cc1ccc(Oc2nccnc2N2CCCC(C(=O)NC(C)c3ccc(C)c(C)c3)C2)cc1 (stereo not drawn)	1150 s
Cc1ccn2c(NC(=O)c3ccc([N+](=O)[O-])cc3)c(-c3ccc(F)cc3)nc2c1	684 s
COC(=O)CC(=O)Nc1nnc(SCc2nnc(-c3ccccc3C)o2)s1	758 s
Cc1cccn2cc(-c3cccc(NS(=O)(=O)c4ccc(Cl)cc4)c3)nc12	686 s
COC(=O)c1cc(C)nc2c1c(=O)n(Cc1cccc(F)c1)c(=O)n2C	973 s
COc1cc(Nc2c(C(=O)N3CCCC3)cnc3nc(C)ccc23)cc(OC)c1OC	592 s
Cc1cc(C)cc(C(=O)N2CCCC(C(=O)NCCC3=CCCCC3)C2)c1 (stereo not drawn)	980 s
CCSc1nnc(-c2nn(C)c3c2CN(S(=O)(=O)c2cc(Cl)ccc2OC)CC3)n1CC	975 s
O=C(c1ccc(Br)o1)N1CCC(c2cnn(-c3ccccc3)c2)CC1	957 s
Cn1cnc(S(=O)(=O)N2CCN(Cc3cccc(F)c3)C3(CCOCC3)C2)c1	598 s
Cc1ccc(-c2cc3n(n2)CCCN(C(=O)c2cccc(C#N)c2)C3)cc1	862 s
C=CCN1C(=O)COc2ccc(-c3nc(NC(=O)c4ccc(Cl)cc4)sc3C)cc21	1140 s
CCOC(=O)C1CCN(C(=O)c2cc3sc(C)cc3n2C)CC1	951 s
CCn1ccc(C(=O)NCC2Cn3cccc3C(=O)N2C)n1 (stereo not drawn)	596 s
Cc1cc(C(=O)NCc2ccccn2)c2cc(Br)ccc2n1	591 s
O=C(NCc1ccccc1)c1nc(-c2ccncc2)cs1	575 s
CCn1cnc(S(=O)(=O)N2CCC(C(=O)Nc3ccc(C)cn3)CC2)c1	592 s
CCN1CCN(c2ccc(NC(=O)c3ccc(F)cc3Cl)cn2)C1=O	742 s
CC(C)(O)[C@@H]1[C@@H]2OC(=O)[C@H]1[C@]1(O)C[C@H]3O[C@]34C(=O)O[C@H]2[C@]14C	709 s
COc1ccc(-c2noc(Cc3nnc(-c4cccc(OC)c4)o3)n2)cc1	992 s
Cn1c(=O)c(=O)n(C)c2cc(N3CCCC3)c(NC(=O)Cc3ccccc3Cl)cc21	793 s
CC1(C)CS(=O)(=O)N(c2ccc(C(=O)N3CCN(c4ccccn4)CC3)cc2)C1=O	608 s

SMILES	RP-LC retention time
CCn1c(SCC(=O)Nc2nc(-c3ccccc3)cs2)nnc1-c1cc2ccccc2o1	1070 s
CCCN1C(=O)C(CC(=O)N2CCCC2)Sc2ncccc21 (stereo not drawn)	691 s
COc1ncc(C(=O)N2CCCCC2)cn1	628 s
O=c1c(NCCc2ccc(Cl)cc2)nc2ccncc2n1Cc1ccccc1	766 s
CC(C)(C)NC(=O)c1ccc2c(c1)CCCN2S(=O)(=O)c1ccccc1	979 s
CC(C)CCn1nc2c(S(=O)(=O)N3CCc4ccccc4C3)cccn2c1=O	1010 s
CCN1C(=O)COc2ccc(-c3csc(NC(=O)c4ccc(F)cc4)n3)cc21	989 s
Cc1ccn2cc(-c3ccc(NC(=O)Nc4ccc(F)cc4)cc3)nc2n1	654 s
Cc1nc(C)c(C(=O)NC2CCc3nn(CC4CC4)c(=O)n3CC2)s1 (stereo not drawn)	597 s
CCC(O)c1nc2ccccc2n1CC(=O)N1CCOCC1 (stereo not drawn)	566 s
COc1ccccc1N1CCN(C(=O)C2CCN(c3nnc(-c4ccccc4)o3)CC2)CC1	807 s
CCNc1nc(C)cc(N2CCN(S(=O)(=O)c3cc(C)c(C)cc3C)CC2)n1	774 s
CC1=C(C(=O)Nc2ccccc2C)C(c2ccc(Cl)cc2Cl)NC(=O)N1 (stereo not drawn)	704 s
CCOc1ccc(-c2csc(NC(=O)CCCOc3ccc(Cl)cc3)n2)cc1	810 s
CN(C)S(=O)(=O)c1ccc2c(c1)N(CC(=O)NC1CCCCCCC1)C(=O)C1CCCCN21 (stereo not drawn)	692 s
COc1ccc(NS(=O)(=O)c2ccc(-c3nnc(C4CCC4)o3)o2)cc1	864 s
Cc1ccc(Cn2c(=O)n(CCNC(=O)C3CCCO3)c3ncccc32)cc1 (stereo not drawn)	726 s
COc1cc(C(=O)N2CC(=O)Nc3ccc(F)cc3C2c2ccccc2)cc(OC)c1OC (stereo not drawn)	906 s
COc1cc(OC)cc(C(=O)N2CCN=C2N2CCCCC2)c1	646 s
O=C(NCCS(=O)(=O)N1CCN(c2ncccn2)CC1)c1cc2ccccc2o1	727 s
CN(C)S(=O)(=O)c1ccc2c(c1)N(CC(=O)NCCc1cccs1)C(=O)C1CCCCN21 (stereo not drawn)	876 s
CCOC(=O)c1c(S(=O)(=O)N2CCc3ccccc3C2)c(C)n(C)c1C	989 s
